Molecules are shown by their SMILES.

The test system of one test is male beagle dogs. The test is described as follows: Duration of lateral recumbence in dogs. In kind it is in vivo, dog. The conditions noted are these: intravenous bolus, administered at 5 mg/kg. On the procedure:
The plasma pharmacokinetics and a qualitative assessment of sedation were obtained in male beagle dogs according to the following procedure. Dogs were dosed by intravenous bolus dose (60 seconds) via the cephalic vein at doses ranging from 2 to 5 mg/kg in an appropriate vehicle. In order to assess sedation, dogs were gently restrained for dose administration. If decreased muscle tone, limb weakness, or head drop was observed during dose administration, onset of lateral recumbence was recorded. […] Sluggish or incomplete righting to the sternal position qualifies as lateral recumbence. After onset of lateral recumbence, animals were assessed every 5 minutes in the same manner. The duration of lateral recumbence was recorded as the time interval between onset of lateral recumbence and the return to sternal position.

The target of another test is T1, GABA receptor α4β3δ (Homo sapiens, UniProt P28472+P48169).
T1 construct: expressed in transfected cells; host or cells: CHO cells, transiently transfected
T1 sequence (P48169 36-554): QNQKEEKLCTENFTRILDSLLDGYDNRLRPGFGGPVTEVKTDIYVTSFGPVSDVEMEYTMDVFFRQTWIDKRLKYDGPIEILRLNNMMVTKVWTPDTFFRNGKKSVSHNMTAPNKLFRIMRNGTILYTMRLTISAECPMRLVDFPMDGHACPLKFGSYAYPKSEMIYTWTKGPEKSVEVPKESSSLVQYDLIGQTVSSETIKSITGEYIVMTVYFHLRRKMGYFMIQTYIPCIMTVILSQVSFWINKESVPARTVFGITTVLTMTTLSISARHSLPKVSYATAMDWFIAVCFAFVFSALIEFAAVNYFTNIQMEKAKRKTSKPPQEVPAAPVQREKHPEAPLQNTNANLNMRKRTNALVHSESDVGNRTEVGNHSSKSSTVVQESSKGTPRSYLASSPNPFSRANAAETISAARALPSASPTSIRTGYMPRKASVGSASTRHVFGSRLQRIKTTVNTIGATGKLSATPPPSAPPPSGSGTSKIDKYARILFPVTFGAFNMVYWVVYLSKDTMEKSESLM
T1 sequence (P28472 26-473): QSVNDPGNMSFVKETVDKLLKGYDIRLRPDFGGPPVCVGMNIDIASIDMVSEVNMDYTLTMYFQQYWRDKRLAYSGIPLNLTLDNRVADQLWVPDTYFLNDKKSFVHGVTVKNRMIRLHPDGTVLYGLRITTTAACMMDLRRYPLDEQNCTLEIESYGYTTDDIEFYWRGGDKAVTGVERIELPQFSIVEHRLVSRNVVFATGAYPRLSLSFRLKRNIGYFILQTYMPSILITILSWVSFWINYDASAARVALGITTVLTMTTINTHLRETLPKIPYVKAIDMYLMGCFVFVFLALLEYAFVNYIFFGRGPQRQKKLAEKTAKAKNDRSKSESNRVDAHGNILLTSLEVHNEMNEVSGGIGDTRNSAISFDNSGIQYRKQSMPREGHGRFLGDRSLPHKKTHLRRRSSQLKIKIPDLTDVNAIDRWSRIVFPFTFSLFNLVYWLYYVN
T1 sequence (O14764 25-452 partner): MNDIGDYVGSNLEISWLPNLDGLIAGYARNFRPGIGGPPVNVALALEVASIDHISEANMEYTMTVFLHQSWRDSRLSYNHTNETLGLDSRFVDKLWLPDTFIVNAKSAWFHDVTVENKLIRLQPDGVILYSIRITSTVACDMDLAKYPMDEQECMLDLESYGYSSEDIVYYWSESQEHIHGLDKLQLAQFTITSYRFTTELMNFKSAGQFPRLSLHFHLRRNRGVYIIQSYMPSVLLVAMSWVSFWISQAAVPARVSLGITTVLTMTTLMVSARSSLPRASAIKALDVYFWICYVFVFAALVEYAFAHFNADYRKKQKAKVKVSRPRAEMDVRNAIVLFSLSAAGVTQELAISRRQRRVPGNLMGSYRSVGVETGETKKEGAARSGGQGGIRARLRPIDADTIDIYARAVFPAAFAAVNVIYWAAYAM
The test is described as follows: Patch clamp electrophysiology, manual patch in CHO cells. In kind it is cell-based. The conditions noted are these: 10 μM test article, GABA EC20 = 2 μM, read-out: GABA (α4β3δ) Manual patch in CHO, % efficacy at 10 μM.

The next test has as its system male Sprague Dawley rats. The test is described as follows: Loss of righting reflex in rats. The conditions noted are these: intravenous bolus 5 mg/kg. In kind it is in vivo, rat. The procedure:
The plasma pharmacokinetics and a qualitative assessment of sedation were obtained in male Sprague Dawley rats according to the following procedure. Rats were dosed by intravenous bolus dose (60 seconds) via the foot dorsal vein at 5 mg/kg in an appropriate vehicle. In order to assess sedation, rats were gently restrained by hand to a lateral position for dose administration. […] If the animal was unable to return to an upright position, the time was recorded as the onset of loss of righting reflex (LRR). […] Sluggish or incomplete righting twice consecutively within a 30 second interval qualifies as a loss of righting reflex. After onset of LRR, animals were assessed every 5 minutes in the same manner. Recovery of righting reflex is defined as the ability of a rat to right itself completely within 20 seconds of being placed in dorsal recumbency. The duration of LRR is defined as the time interval between LRR and the return of righting reflex.

Test [1] deals with TBPS binding, rat brain cortical membranes in the presence of 5 μM GABA. The test is described as follows: 35S-TBPS displacement (steroid inhibition of TBPS binding). To be noted: read-out: 35S-TBPS Radioligand Displacement (IC50). On the procedure:
TBPS binding assays using rat brain cortical membranes in the presence of 5 μM GABA has been described (Gee et al, J. Pharmacol. Exp. Then 1987, 241, 346-353; Hawkinson et al, Mol. Pharmacol. 1994, 46, 977-985). Briefly, cortices are rapidly removed following decapitation of carbon dioxide-anesthetized Sprague-Dawley rats (200-250 g). The cortices are homogenized in 10 volumes of ice-cold 0.32 M sucrose using a glass/teflon homogenizer and centrifuged at 1500×g for 10 min at 4° C. The resultant supernatants are centrifuged at 10,000×g for 20 min at 4° C. to obtain the P2 pellets. The P2 pellets are resuspended in 200 mM NaCl/50 mM Na—K phosphate pH 7.4 buffer and centrifuged at 10,000×g for 10 min at 4° C. This washing procedure is repeated twice and the pellets are resuspended in 10 volumes of buffer. Aliquots (100 μL) of the membrane suspensions are incubated with 3 nM [^35S]-TBPS and 5 μL, aliquots of test drug dissolved in dimethyl sulfoxide (DMSO) (final 0.5%) in the presence of 5 μM GABA. The incubation is brought to a final volume of 1.0 mL with buffer. Nonspecific binding is determined in the presence of 2 μM unlabeled TBPS and ranged from 15 to 25%. Following a 90 min incubation at room temp, the assays are terminated by filtration through glass fiber filters (Schleicher and Schuell No. 32) using a cell harvester (Braudel) and rinsed three times with ice-cold buffer. Filter bound radioactivity is measured by liquid scintillation spectrometry. Non-linear curve fitting of the overall data for each drug averaged for each concentration is done using Prism (GraphPad). […] The concentration of test compound producing 50% inhibition (IC50) of specific binding and the maximal extent of inhibition (Imax) are determined for the individual experiments with the same model used for the overall data and then the means±SEMs of the individual experiments are calculated.
Various compounds are or can be screened to determine their potential as modulators of ^35S-TBPS binding in vitro. These assays are or can be performed in accordance with the above discussed procedures.

The target in another test is T2, GABA receptor α1β2γ2 (Homo sapiens, UniProt P14867+P47870).
T2 construct: expressed in transfected cells; host or cells: LTK cells, stably transfected
T2 sequence (P14867 28-456): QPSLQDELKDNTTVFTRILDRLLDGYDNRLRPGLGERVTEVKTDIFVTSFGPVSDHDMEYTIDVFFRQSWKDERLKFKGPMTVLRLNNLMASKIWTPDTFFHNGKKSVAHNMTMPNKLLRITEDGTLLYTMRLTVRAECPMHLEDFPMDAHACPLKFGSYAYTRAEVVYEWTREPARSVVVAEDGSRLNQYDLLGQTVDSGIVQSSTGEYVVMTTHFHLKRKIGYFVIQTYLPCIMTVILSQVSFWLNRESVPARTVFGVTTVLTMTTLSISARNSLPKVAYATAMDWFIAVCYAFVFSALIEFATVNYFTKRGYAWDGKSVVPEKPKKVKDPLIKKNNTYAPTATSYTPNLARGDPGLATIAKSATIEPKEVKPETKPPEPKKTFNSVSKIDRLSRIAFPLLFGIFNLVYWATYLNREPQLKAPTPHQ
T2 sequence (P47870 25-512 limits assumed): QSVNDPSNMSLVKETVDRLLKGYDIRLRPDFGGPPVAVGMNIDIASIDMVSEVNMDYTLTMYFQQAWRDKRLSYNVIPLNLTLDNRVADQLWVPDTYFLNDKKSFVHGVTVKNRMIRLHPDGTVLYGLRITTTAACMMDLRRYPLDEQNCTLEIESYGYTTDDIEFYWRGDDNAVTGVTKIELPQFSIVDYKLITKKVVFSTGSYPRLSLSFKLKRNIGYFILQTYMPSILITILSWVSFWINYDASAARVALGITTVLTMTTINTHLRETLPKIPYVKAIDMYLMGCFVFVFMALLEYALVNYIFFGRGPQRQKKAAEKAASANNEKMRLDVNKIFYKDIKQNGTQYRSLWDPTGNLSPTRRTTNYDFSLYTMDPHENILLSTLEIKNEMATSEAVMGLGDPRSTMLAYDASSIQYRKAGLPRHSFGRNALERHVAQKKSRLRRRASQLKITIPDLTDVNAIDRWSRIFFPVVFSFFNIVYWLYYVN
T2 sequence (P18507 40-475 partner): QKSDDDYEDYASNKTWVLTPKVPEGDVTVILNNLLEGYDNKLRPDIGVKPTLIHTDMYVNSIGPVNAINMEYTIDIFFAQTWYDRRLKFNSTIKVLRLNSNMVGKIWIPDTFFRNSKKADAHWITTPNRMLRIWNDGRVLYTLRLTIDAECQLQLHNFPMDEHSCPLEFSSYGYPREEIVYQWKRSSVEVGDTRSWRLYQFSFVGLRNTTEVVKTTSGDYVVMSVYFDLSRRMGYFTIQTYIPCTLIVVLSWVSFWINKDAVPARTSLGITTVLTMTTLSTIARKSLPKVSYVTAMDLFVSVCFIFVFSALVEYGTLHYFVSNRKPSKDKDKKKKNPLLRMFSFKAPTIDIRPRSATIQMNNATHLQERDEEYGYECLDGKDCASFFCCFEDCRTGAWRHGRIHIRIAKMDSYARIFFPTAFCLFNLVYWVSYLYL
The test is described as follows: Patch clamp electrophysiology, Qpatch in Ltk cells. In kind it is cell-based. The conditions noted are these: 10 μM test article, GABA EC20 = 2 μM, read-out: GABA (α1β2γ2) Qpatch in Ltk, % efficacy at 10 μM.

As for `CO[C@H]1C[C@]2(C)[C@@H](C#N)CC[C@H]2[C@@H]2CC[C@H]3C[C@H](O)CC[C@]3(C)[C@H]21` [Compound 31], in the test on male beagle dogs, the “Duration of Lateral Recumbence (min)” value was “A (“A” indicates the duration to be >20 minutes)”. The Emax at 10 µM was 100 to 500% at GABA receptor α4β3δ and greater than 500% at GABA receptor α1β2γ2. Besides, in the test on male Sprague Dawley rats, the “Duration of LRR (min)” value was “B (“B” indicates the duration of LRR to be 10-20 minutes)”. Also, the IC50 in test [1] is 10 to 50 nM.
Regarding `CCCO[C@H]1C[C@@]2(C)[C@@H](CC[C@@H]3[C@@H]2CC[C@]2(C)[C@@H](C#N)CC[C@@H]32)C[C@@H]1O` [Compound 16], the Emax at 10 µM on GABA receptor α4β3δ was 100 to 500%; at GABA receptor α1β2γ2 it was greater than 500%. Moreover, in the test with male Sprague Dawley rats, the “Duration of LRR (min)” value is on record as “C (“C” indicates the duration of LRR to be >20 minutes)”. For the same compound, in test [1], the IC50 is less than 10 nM.
On to `CO[C@H]1C[C@@]2(C)[C@@H](CC[C@H]3[C@@H]4CC[C@H](C#N)[C@@]4(C)CC(=O)[C@@H]32)C[C@@H]1O` [Compound 3], for which, in the test on male beagle dogs, the “Duration of Lateral Recumbence (min)” value is “A (“A” indicates the duration to be >20 minutes)”. The Emax at 10 µM on GABA receptor α4β3δ and on GABA receptor α1β2γ2 was 100 to 500% each time. The “Duration of LRR (min)” value with male Sprague Dawley rats was “A (“A” indicates the duration of LRR to be <10 min)”. The concentration for half-maximal inhibition (IC50) in test [1] is greater than 500 nM.
In the case of `CCO[C@H]1C[C@@]2(C)[C@@H](CC[C@H]3[C@@H]4CC[C@H](C#N)[C@@]4(C)CC(=O)[C@@H]32)C[C@@H]1O` [Compound 19], the “Duration of Lateral Recumbence (min)” value in the test on male beagle dogs is “A (“A” indicates the duration to be >20 minutes)”. Also, the “Duration of LRR (min)” value in the test on male Sprague Dawley rats is recorded as “B (“B” indicates the duration of LRR to be 10-20 minutes)”. The concentration for half-maximal inhibition (IC50) in test [1] was in the range of 50 to 100 nM. Further, on GABA receptor α1β2γ2, the Emax at 10 µM was greater than 500%.
For the compound `CO[C@H]1C[C@]2(C)[C@@H](C#N)CC[C@H]2[C@@H]2CC[C@H]3C[C@H](O)[C@H](C)C[C@]3(C)[C@H]21` [Compound 45], the “Duration of LRR (min)” value with male Sprague Dawley rats was “C (“C” indicates the duration of LRR to be >20 minutes)”. Moreover, the concentration for half-maximal inhibition (IC50) in test [1] was 50 to 100 nM. Moreover, at GABA receptor α1β2γ2, the Emax at 10 µM was greater than 500%.
Consider `CC(C)CO[C@H]1C[C@]2(C)C3CC[C@]4(C)[C@@H](C#N)CC[C@H]4[C@@H]3CC[C@H]2C[C@@H]1O` (stereo partly drawn) [Compound 29], for which the “Duration of LRR (min)” value in the test on male Sprague Dawley rats was “C (“C” indicates the duration of LRR to be >20 minutes)”. In test [1], the half-inhibitory concentration (IC50) is less than 10 nM. The Emax at 10 µM at GABA receptor α1β2γ2 is greater than 500%.
The matching figures for `CCO[C@H]1C[C@@]2(C)[C@@H](CC[C@@H]3[C@@H]2[C@@H](O)C[C@]2(C)[C@@H](C#N)CC[C@@H]32)C[C@@H]1O` [Compound 10]: “A (“A” indicates the duration of LRR to be <10 min)”, greater than 500 nM and greater than 500%.
In the case of `C[C@]12CC[C@@H](O)C[C@H]1CC[C@@H]1[C@@H]2[C@@H](O)C[C@]2(C)[C@@H](C#N)CC[C@@H]12` [Compound 9], the Emax at 10 µM at GABA receptor α4β3δ lay in the range of 10 to 100%; at GABA receptor α1β2γ2, 100 to 500%. Further, the IC50 in test [1] is greater than 500 nM.

The values are drawn from patent US11046728B2, “Neuroactive steroids, compositions, and uses thereof” (Sage Therapeutics, Inc., priority 2013, dated 2021).
